Laboratory results: article PMC3352337, “Synergistic Antimycobacterial Actions of Knowltonia vesicatoria (L.f) Sims” (Evidence-based Complementary and Alternative Medicine : eCAM, 2012)
In brackets after ≈: the same amount, converted by molar mass. Read-outs that look alike come from different tables or passages of the source. Marks after values point to notes of the source that are not given here. *1 amine or outer side, *2 acyl side, *3 side chain or, on linkers, in order; H or OH if unused. Where a SMILES comes first, the peptide text is derived from it. Bridges are numbered along the chain shown (N, C = ends). Roman numbers before positions name the chains, in order. [ ]: non-standard residue; d: D form. Actinocin(9to1) = Cc1c2oc3c(C)ccc(C(=O)[*:1])c3nc-2c(C(=O)[*:2])c(N)c1=O; NMeV = CN[C@H](C(=O)O)C(C)C; Sar = CNCC(=O)O

Experiments:
[1] = test system: U937 cells; experiment: XTT cytotoxicity assay on PMA-differentiated U937 cells; details: for IC50: Homo sapiens, U-937, 72 h
[2] = test system: M. tuberculosis H37Rv (ATCC 27294); experiment: microbe, parasite or virus in culture; format: cell-based, Mycobacterium tuberculosis; details: for ΔGI4-3 ± SD: BACTEC growth index change, V2 10^-2 inoculum control 22.0 ± 2.94; for MIC: Mycobacterium tuberculosis, read-out: MIC (minimum inhibitory concentration)
[3] = test system: M. tuberculosis; experiment: Microplate assay MIC against M. tuberculosis (compound 2); format: cell-based, Mycobacterium tuberculosis; details: BACTEC MIC not determined
[4] = test system: M. tuberculosis; details: cited from earlier work
[5] = XTT cytotoxicity assay on PMA-differentiated U937 cells; details: human, PMA-differentiated U937 cells (macrophage-like), pH 7.2
[6] = test system: Mycobacterium smegmatis (MC^2 155); experiment: Microdilution (microplate INT) susceptibility assay on M. smegmatis; format: cell-based; details: Mycolicibacterium smegmatis
Experimental: Cryopreserved or freshly scraped colonies were suspended in fresh Middlebrook 7H9 broth (Sigma-Aldrich Chemical Co., South Africa) and incubated for 24 h at 37°C. The overnight liquid culture was then transferred to a sterile test tube containing 20–25 glass beads (with a 2.00 mm diameter) and homogenised by using a vortex mixer (Heidolph, Germany) for 5–10 min. The broth culture was then left still for 5–10 min to let larger clumps of mycobacteria settle. The supernatant was carefully decanted to a sterile flask and adjusted with Middlebrook 7H9 broth base to an optical density of 0.2 (log phase) at 550 nm (Beckman DU-720 UV spectrophotometer), yielding 1.26 × 10^8 colony-forming units per millilitre (CFU/mL). The microdilution test was performed in 96-well microtiter plates as described earlier.
The plant extract and fractions were dissolved in 10% dimethyl sulfoxide (DMSO) to obtain a stock concentration of 10 mg/mL. Ciprofloxacin (Sigma-Aldrich Chemical Co., South Africa) at final concentrations ranging from 2.00 × 10^−3 to 7.80 × 10^−5 mg/mL served as the positive drug control. Serial twofold dilutions of each test sample were made with Middlebrook 7H9 broth base (Sigma-Aldrich Chemical Co., South Africa) to yield volumes of […] with final concentrations ranging from 2.50 to 0.08 mg/mL. […]

[7] = read-out: IC50 (fifty percent inhibitory concentration)

With `CCC(=CC[C@@H](C)[C@H]1CC[C@H]2[C@@H]3CC=C4CC(O)CC[C@]4(C)[C@H]3CC[C@]12C)C(C)C` (some centres unmarked) [Compound (1), Stigmasta-5,23-dien-3-ol] the IC50 [1, 7] was 16.41 ± 0.135 µg/mL (≈ 39.8 µM), the “ΔGI4-3 ± SD” value [2] was −9.00 ± 1.41 and the MIC ([2]; BACTEC radiometric) was 50 µg/mL (≈ 121 µM).

In the case of `O=C1C=CC(CO)O1` (centres unmarked) [Compound (2), 5-(hydroxymethyl)furan-2(5H)-one], the IC50 [1, 7] is reported as 44.7 ± 0.5 µg/mL (≈ 392 µM), the “MIC determined via microplate assay” value [3] is reported as 100.0^k μg/mL and the MIC ([3]; Mycobacterium tuberculosis, read-out: MIC determined via microplate assay) is reported as 200 µg/mL (≈ 1750 µM).

For `C=CC(O)(CC[C@@H](C)[C@H]1CC[C@H]2[C@@H]3CC=C4C[C@@H](O)CC[C@]4(C)[C@H]3CC[C@]12C)C(C)C` (some centres unmarked) [saringosterol], the MIC ([4]; M. tb ref 34) is listed as 0.250 µg/mL (≈ 0.583 µM).

In the case of `Cc1c2oc3c(C)ccc(C(=O)N[C@@H]4C(=O)N[C@H](C(C)C)C(=O)N5CCC[C@H]5C(=O)N(C)CC(=O)N(C)[C@@H](C(C)C)C(=O)O[C@@H]4C)c3nc-2c(C(=O)N[C@@H]2C(=O)N[C@H](C(C)C)C(=O)N3CCC[C@H]3C(=O)N(C)CC(=O)N(C)[C@@H](C(C)C)C(=O)O[C@@H]2C)c(N)c1=O` [Actinomycin D] (I: T[dV]P[Sar][NMeV] / II: T[dV]P[Sar][NMeV]; ester I:1-I:C, II:1-II:C; linker I:N-II:N via Actinocin(9to1)), the IC50 ([1]; read-out: IC50 (fifty percent inhibitory concentration), U937 macrophages, 72 h, XTT) is reported as 0.0038 µg/mL (≈ 0.00303 µM) and the “IC50 (fifty percent inhibitory concentration)” value ([1]; U937 macrophages, 72 h, XTT) is reported as 3.820 ± 0.258 ×10^−3 μg/mL.

In the case of `CC[C@H](/C=C/[C@@H](C)[C@H]1CC[C@H]2[C@@H]3CC=C4C[C@@H](O)CC[C@]4(C)[C@H]3CC[C@]12C)C(C)C` [stigmasterol], the MIC ([4]; phytosterols from Morinda citrifolia against M. tb ref 33 (Saludes et al.)) is listed as 32.00 µg/mL (≈ 77.5 µM).

In the case of `NNC(=O)c1ccncc1` [INH, isoniazid], the IC50 [1, 7] is reported as greater than 200 µg/mL, the viability at 72 h, 200 μg/mL [5] is reported as 80% and the “ΔGI4-3 ± SD” value [2] is reported as −2.50 ± 2.12. For the same compound, the “MIC (minimum inhibitory concentration)” value ([2]; BACTEC radiometric) was 0.20 µg/mL (≈ 1.46 µM) and the MIC ([2]; BACTEC radiometric) was 0.2 µg/mL (≈ 1.46 µM).

Compound `O=C(O)c1cn(C2CC2)c2cc(N3CCNCC3)c(F)cc2c1=O` [Ciprofloxacin] has an MIC ([6]; MC^2155, 24 h, INT microplate, read-out: MIC (minimum inhibitory concentration)) of 1.25 µg/mL (≈ 3.77 µM) and an MBC ([6]; MC^2155, 48 h subculture, INT, read-out: MBC (minimum bactericidal concentration)) of 1.25 µg/mL (≈ 3.77 µM).
